Test results reported in article PMC3500254, “Potent Inhibition of Late Stages of Hepadnavirus Replication by a Modified Cell Penetrating Peptide” (PLoS ONE, 2012).
Read-outs that look alike come from different tables or passages of the source. Non-standard residues stand in square brackets, D forms with d. Residues, ends and D or L forms follow the SMILES beside them. *: point of attachment. Stearoyl = CCCCCCCCCCCCCCCCCC(=O)*; Palmitoyl = CCCCCCCCCCCCCCCC(=O)*; Myristoyl = CCCCCCCCCCCCCC(=O)*; Lauroyl = CCCCCCCCCCCC(=O)*; Decanoyl = CCCCCCCCCC(=O)*; Octanoyl = CCCCCCCC(=O)*

Legend:
[1] = tested on: Duck Hepatitis B Virus (DHBV)
Description: (§1) Infected PDH and LMH-D2 cells were treated with 2 µM of several modified cationic peptides for 5 days. Cells supernatants were collected daily and were spotted onto positively charged nylon membrane and DHBV DNA was detected by hybridization with a DHBV DNA probe labeled with ^32P, and then was quantified by PhosphorImager scanning using ImageQuant software (Molecular Dynamics) to monitor DHBV release. Relative areas under curves determined by the means of duplicate, compared to untreated cells set at 100% are represented. […] Cell viability was determined by enzymatic activity MTT assay after daily incubation with different concentrations of Deca-(Arg)8 ranking from 1 µM to 4 µM during six days. The error bars display the standard deviation of duplicates in three independent experiments.
(§2) DHBV-infected PDHs (A), and stable transfected LMH-D2 cells (B) were treated with increasing amounts of Deca-(Arg)8 ranking from 0.25 µM to 2 µM in duplicates for 6 and 4 days, respectively. Cell culture supernatants were collected daily during treatment. The kinetics of viral release in cell culture supernatants, monitored by dot-blot hybridization and quantified by PhosphorImager scanning using ImageQuant software (Molecular Dynamics) is represented on the upper panel. Relative areas under curves determined by the means of duplicate, compared to untreated cells, are represented in the lower panel. The curves are representative of at least two independent experiments.
(§3) Primary duck hepatocytes (PDH) were isolated from Pekin duck embryos as previously described. DHBV infection was performed at the same time as plating by overnight incubation (16 h) of the hepatocytes with a virus-positive duck serum (30 virus genome equivalents (vge) per cell). The previously described avian hepatoma DHBV transfected LMH-D2 cell line, [38] was grown as previously described. The stably HBV-transfected cell line HepG2.2.15 was grown as previously described. Different amounts of CatLip were added daily to the culture medium from day 1 post-seeding and cells were lyzed at the end of treatment for analysis of intracellular viral DNA, RNA, and proteins. The growth medium was harvested and changed daily. The cellular toxicity was analyzed by daily examination of cells with a light microscope and by a cell toxicity test based on the (3-(4,5-dimethylthiazol-2-yl)-2,5 diphenyl-tetrazolium-bromide (MTT) assay.
(§4) Cells supernatants were harvested daily, spotted onto positively charged nylon membrane and extracellular DHBV DNA was detected in supernatant of cells by dot blot hybridization assay using a full-length ^32P-labelled DHBV probe as described previously. For DHBV intermediate replicative forms analysis, DNA was extracted from cells and 10 µg of the total cellular DNA were subjected to electrophoresis on 1% agarose gel, followed by Southern blot analysis and hybridization with ^32P-labeled genomic DHBV probe as previously described. Viral DNA was quantified by PhosphorImager scanning using ImageQuant software (Molecular Dynamics).

[2] = tested on: Duck Hepatitis B Virus (DHBV); assay: Inhibition of DHBV release in stably DHBV-transfected LMH-D2 cells (dot-blot of supernatant DHBV DNA); assay type: cell-based; settings: concentration of CPP resulting in 50% inhibition of DHBV release, peptide added daily, PhosphorImager
Description: as §1, §2, §3, §4

[3] = tested on: LMH-D2 cells; assay type: cell-based, avian; settings: daily exposure 1 µM to 4 µM for 6 days, duplicates in three independent experiments
Description: (§5) Figure 1 Inhibition of DHBV release in PDHs and LMH-D2 cells by modified cationic peptides and effect of Deca-(Arg)8 on cell viability. Infected PDH and LMH-D2 cells were treated with 2 µM of several modified cationic peptides for 5 days. […] Relative areas under curves determined by the means of duplicate, compared to untreated cells set at 100% are represented. The two representations show the effect of modified cationic peptides derived from (Arg)8 sequence with increasing number of arginine in the peptide (A) or with increasing number of carbon in the fatty acid chain (B). Dose-dependent effects of Deca-(Arg)8 transduction on cell viability (C). Cell viability was determined by enzymatic activity MTT assay after daily incubation with different concentrations of Deca-(Arg)8 ranking from 1 µM to 4 µM during six days. The error bars display the standard deviation of duplicates in three independent experiments. […]
(§6) Primary duck hepatocytes (PDH) were isolated from Pekin duck embryos as previously described. […] The cellular toxicity was analyzed by daily examination of cells with a light microscope and by a cell toxicity test based on the (3-(4,5-dimethylthiazol-2-yl)-2,5 diphenyl-tetrazolium-bromide (MTT) assay.

[4] = tested on: PDH; assay: MTT cell viability, PDH; assay type: cell-based, Pekin duck; settings: daily exposure 1 µM to 4 µM for 6 days, duplicates in three independent experiments
Description: as §5, §6

[5] = tested on: PDH; settings: 24 hours at 37°C, 5% CO2, fluorescence microscopy; for FITC-labelled cells (internalization): 0.5 µM; for percentage of FITC-labelled cells: 2 µM
Description: Next we analyzed cellular internalization of Deca-(Arg)8-FITC and Arg8-FITC in PDH cells using fluorescence microscopy.
(A); PDHs were plated and treated with (Arg)8 (left panel) or Deca-(Arg)8 (right panel) coupled to FITC at different concentration ranking from 0.5 µM to 2 µM and cells were incubated at 37°c, 5% of CO2 for 24 hours. Cells were observed by fluorescence microscopy (Magnificationx20).

| Compound | IC50 [2] [nM] | IC50 ([1]; 16 h) [nM] | other results |
| --- | --- | --- | --- |
| CCCCCCCCCC(=O)N[C@H](Cc1c[nH]c2ccccc12)C(=O)N[C@H](CCCNC(=N)N)C(=O)N[C@H](CCCNC(=N)N)C(=O)N[C@H](CCCNC(=N)N)C(=O)N[C@H](CCCNC(=N)N)C(=O)N[C@H](CCCNC(=N)N)C(=O)N[C@H](CCCNC(=N)N)C(=O)NCC(N)=O [Deca-(Arg)6] | 2200 | – | IC50 ([1]; read-out: IC50 of DHBV release, PDH, DHBV-infected PDH, concentration of CPP resulting in 50% inhibition of DHBV release, peptide added daily, supernatant DHBV DNA by dot-blot, 32P probe, PhosphorImager): 1400 nM |
| CCCCCCCCCC(=O)N[C@H](Cc1c[nH]c2ccccc12)C(=O)N[C@H](CCCNC(=N)N)C(=O)N[C@H](CCCNC(=N)N)C(=O)N[C@H](CCCNC(=N)N)C(=O)N[C@H](CCCNC(=N)N)C(=O)N[C@H](CCCNC(=N)N)C(=O)N[C@H](CCCNC(=N)N)C(=O)N[C@H](CCCNC(=N)N)C(=O)N[C@H](CCCNC(=N)N)C(=O)N[C@H](CCCNC(=N)N)C(=O)N[C@H](CCCNC(=N)N)C(=O)NCC(N)=O [Deca-(Arg)10] | – | 1400 | – |
| CCCCCCCCCC(=O)N[C@H](CCCNC(=N)N)C(=O)N[C@H](CCCNC(=N)N)C(=O)N[C@H](CCCNC(=N)N)C(=O)N[C@H](CCCNC(=N)N)C(=O)N[C@H](CCCCN)C(=O)N[C@H](CCCCN)C(=O)N[C@H](CCCCN)C(=O)N[C@H](CCCCN)C(=O)NCC(N)=O [Deca-(Arg-Lys)4–4] (Decanoyl-[dR][dR][dR][dR][dK][dK][dK][dK]G-NH2) | – | 2300 | – |
| CCCCCCCCCCCCCCCC(=O)N[C@H](Cc1c[nH]c2ccccc12)C(=O)N[C@H](CCCNC(=N)N)C(=O)N[C@H](CCCNC(=N)N)C(=O)N[C@H](CCCNC(=N)N)C(=O)N[C@H](CCCNC(=N)N)C(=O)N[C@H](CCCNC(=N)N)C(=O)N[C@H](CCCNC(=N)N)C(=O)N[C@H](CCCNC(=N)N)C(=O)N[C@H](CCCNC(=N)N)C(=O)NCC(N)=O [Palmit-(Arg)8] (Palmitoyl-[dW][dR][dR][dR][dR][dR][dR][dR][dR]G-NH2) | 1700 | 1800 | – |
| CCCCCCCC(=O)N[C@H](Cc1c[nH]c2ccccc12)C(=O)N[C@H](CCCNC(=N)N)C(=O)N[C@H](CCCNC(=N)N)C(=O)N[C@H](CCCNC(=N)N)C(=O)N[C@H](CCCNC(=N)N)C(=O)N[C@H](CCCNC(=N)N)C(=O)N[C@H](CCCNC(=N)N)C(=O)N[C@H](CCCNC(=N)N)C(=O)N[C@H](CCCNC(=N)N)C(=O)NCC(N)=O [Octa-(Arg)8] (Octanoyl-[dW][dR][dR][dR][dR][dR][dR][dR][dR]G-NH2) | 2700 | 1700 | – |
| CCCCCCCCCC(=O)N[C@H](Cc1c[nH]c2ccccc12)C(=O)N[C@H](CCCNC(=N)N)C(=O)N[C@H](CCCNC(=N)N)C(=O)N[C@H](CCCNC(=N)N)C(=O)N[C@H](CCCNC(=N)N)C(=O)N[C@H](CCCNC(=N)N)C(=O)N[C@H](CCCNC(=N)N)C(=O)N[C@H](CCCNC(=N)N)C(=O)N[C@H](CCCNC(=N)N)C(=O)NCC(N)=O [Deca-(Arg)8] (Decanoyl-[dW][dR][dR][dR][dR][dR][dR][dR][dR]G-NH2) | 300 | 600 | cell viability (MTT) versus untreated cells [3]: No statistically significant difference; cell viability (MTT) versus untreated cells [4]: No statistically significant difference |
| Decanoic acid (C10:0)-Fluoresceinyl-lysine–RRRRRRRRG-NH2 [Deca-(Arg)8-FITC] | – | – | FITC-labelled cells (internalization) [5]: a higher number of FITC-labelled cells were observable; percentage of FITC-labelled cells [5]: more than 90% |
| CCCCCCCCCC(=O)N[C@H](Cc1c[nH]c2ccccc12)C(=O)N[C@H](CCCNC(=N)N)C(=O)N[C@H](CCCNC(=N)N)C(=O)N[C@H](CCCNC(=N)N)C(=O)N[C@H](CCCNC(=N)N)C(=O)N[C@H](CCCNC(=N)N)C(=O)N[C@H](CCCNC(=N)N)C(=O)N[C@H](CCCNC(=N)N)C(=O)N[C@H](CCCNC(=N)N)C(=O)N[C@H](CCCNC(=N)N)C(=O)NCC(N)=O [Deca-(Arg)9] (Decanoyl-[dW][dR][dR][dR][dR][dR][dR][dR][dR][dR]G-NH2) | – | 1600 | – |
| CCCCCCCCCCCC(=O)N[C@H](Cc1c[nH]c2ccccc12)C(=O)N[C@H](CCCNC(=N)N)C(=O)N[C@H](CCCNC(=N)N)C(=O)N[C@H](CCCNC(=N)N)C(=O)N[C@H](CCCNC(=N)N)C(=O)N[C@H](CCCNC(=N)N)C(=O)N[C@H](CCCNC(=N)N)C(=O)N[C@H](CCCNC(=N)N)C(=O)N[C@H](CCCNC(=N)N)C(=O)NCC(N)=O [Dodeca-(Arg)8] (Lauroyl-[dW][dR][dR][dR][dR][dR][dR][dR][dR]G-NH2) | 700 | 900 | – |
| CCCCCCCCCC(=O)O [decanoic acid, reference compound] | – | – | effect on DHBV secretion ([1]; 5-days treatment, decanoic acid 0.5 to 10 µM, Fig. S2 (PDH and LMH-D2)): unable to significantly decrease DHBV secretion |
| Fluoresceinyl-lysine-RRRRRRRRG-NH2 [(Arg)8-FITC] | – | – | FITC-labelled cells (internalization) [5]: remained negative; percentage of FITC-labelled cells [5]: 70% |
| CCCCCCCCCCCCCC(=O)N[C@H](Cc1c[nH]c2ccccc12)C(=O)N[C@H](CCCNC(=N)N)C(=O)N[C@H](CCCNC(=N)N)C(=O)N[C@H](CCCNC(=N)N)C(=O)N[C@H](CCCNC(=N)N)C(=O)N[C@H](CCCNC(=N)N)C(=O)N[C@H](CCCNC(=N)N)C(=O)N[C@H](CCCNC(=N)N)C(=O)N[C@H](CCCNC(=N)N)C(=O)NCC(N)=O [Myrist-(Arg)8] (Myristoyl-[dW][dR][dR][dR][dR][dR][dR][dR][dR]G-NH2) | 1200 | 1200 | – |
| N=C(N)NCCC[C@@H](NC(=O)[C@H](N)Cc1c[nH]c2ccccc12)C(=O)N[C@H](CCCNC(=N)N)C(=O)N[C@H](CCCNC(=N)N)C(=O)N[C@H](CCCNC(=N)N)C(=O)N[C@H](CCCNC(=N)N)C(=O)N[C@H](CCCNC(=N)N)C(=O)N[C@H](CCCNC(=N)N)C(=O)N[C@H](CCCNC(=N)N)C(=O)NCC(N)=O [(Arg)8] (H-[dW][dR][dR][dR][dR][dR][dR][dR][dR]G-NH2) | 1300 | 1800 | inhibition of DHBV secretion ([1]; 5-days treatment, (Arg)8 0.5 to 2 µM, compared with Deca-(Arg)8, Fig. S2 (PDH and LMH-D2; cell system not given)): 60% |
| CCCCCCCCCCCCCCCCCC(=O)N[C@H](Cc1c[nH]c2ccccc12)C(=O)N[C@H](CCCNC(=N)N)C(=O)N[C@H](CCCNC(=N)N)C(=O)N[C@H](CCCNC(=N)N)C(=O)N[C@H](CCCNC(=N)N)C(=O)N[C@H](CCCNC(=N)N)C(=O)N[C@H](CCCNC(=N)N)C(=O)N[C@H](CCCNC(=N)N)C(=O)N[C@H](CCCNC(=N)N)C(=O)NCC(N)=O [Stear-(Arg)8] (Stearoyl-[dW][dR][dR][dR][dR][dR][dR][dR][dR]G-NH2) | 1800 | 1900 | – |
| CCCCCCCCCC(=O)N[C@H](Cc1c[nH]c2ccccc12)C(=O)N[C@H](CCCNC(=N)N)C(=O)N[C@H](CCCNC(=N)N)C(=O)N[C@H](CCCNC(=N)N)C(=O)N[C@H](CCCNC(=N)N)C(=O)N[C@H](CCCNC(=N)N)C(=O)N[C@H](CCCNC(=N)N)C(=O)N[C@H](CCCNC(=N)N)C(=O)NCC(N)=O [Deca-(Arg)7] | 800 | 900 | – |
